The structures appear in SMILES notation. Converted amounts (≈) assume the structure as drawn. Counter-ions that a name gives are not always drawn. Like-named read-outs stand apart in the source and are kept apart here. Some results are limits rather than exact numbers.

Assay type in all cases: cell-based
The subject of one assay is Yersinia pestis C092. The experiment in a line: microbe, parasite or virus in culture.
The test system of assay [1] is S. aureus BAA-1720 (MRSA, FQ-R). The experiment in a line: MIC, CLSI broth microdilution (Table 1). The settings on record: Staphylococcus aureus, read-out: MIC S. aureus BAA-1720 (MRSA, FQ-R). Background: Dilution methods test growth across graded concentrations, often in twofold steps.
Assay [2] has as its system Staphylococcus aureus (16 strains). The experiment in a line: MIC range, broader panel incl. clinical isolates (Table 3).
Another assay concerns K. pneumoniae ATCC 33495. The experiment in a line: MIC, CLSI broth microdilution (Table 2). The settings on record: Klebsiella pneumoniae.
Assay [3] has as its system Burkholderia mallei ATCC 23344. The experiment in a line: microbe, parasite or virus in culture. The settings on record: ATCC23344.
The subject of a further assay is H. influenzae ATCC 49247. The experiment in a line: MIC, CLSI broth microdilution (Table 2). The settings on record: Haemophilus influenzae.
In the next assay the test system is E. coli ATCC 25922. The experiment in a line: MIC, CLSI broth microdilution (Table 2). Particulars: Escherichia coli.
Assay [4] deals with Burkholderia cepacia (5 strains). The experiment in a line: MIC range, broader panel incl. clinical isolates (Table 4).
Assay [5] deals with S. maltophilia ATCC 17677. The experiment in a line: MIC, CLSI broth microdilution (Table 2). Particulars: Stenotrophomonas maltophilia.
For assay [6], the system named is Francisella tularensis Schu S4. The experiment in a line: microbe, parasite or virus in culture. Particulars: SCHUS4.
In assay [7] the test system is Burkholderia pseudomallei ATCC 23343. The experiment in a line: microbe, parasite or virus in culture. Particulars: ATCC23343.
A further assay concerns S. pneumonia ATCC 49619. The experiment in a line: MIC, CLSI broth microdilution (Table 1). The settings on record: Streptococcus pneumoniae.
Assay [8] concerns Bacillus anthracis Ames strain. The experiment in a line: microbe, parasite or virus in culture.
For the next assay, the system named is A. baumannii ATCC 19606. The experiment in a line: MIC, CLSI broth microdilution (Table 2). Particulars: Acinetobacter baumannii.
Another assay relates to E. faecium ATCC 19434. The experiment in a line: MIC, CLSI broth microdilution (Table 1). Particulars: Enterococcus faecium.
The next assay deals with S. aureus ATCC 25923. The experiment in a line: MIC, CLSI broth microdilution (Table 1). Particulars: Staphylococcus aureus, ATCC25923, read-out: MIC S. aureus ATCC 25923.
Another assay deals with E. faecalis ATCC 29212. The experiment in a line: MIC, CLSI broth microdilution (Table 1). The settings on record: Enterococcus faecalis, ATCC29212, read-out: MIC E. faecalis ATCC 29212.
In the next assay the test system is P. aeruginosa ATCC 27853. The experiment in a line: MIC, CLSI broth microdilution (Table 2). Particulars: Pseudomonas aeruginosa, ATCC27853, read-out: MIC P. aeruginosa ATCC 27853.
Assay [9] concerns S. aureus ATCC 43300 (MRSA, FQ-S). The experiment in a line: MIC, CLSI broth microdilution (Table 1). The settings on record: Staphylococcus aureus, read-out: MIC S. aureus ATCC 43300 (MRSA, FQ-S).
Assay [10] concerns Brucella abortus ATCC 23448. The experiment in a line: microbe, parasite or virus in culture. Particulars: ATCC23448.

`Cc1c(C2=CCNCC2)ccn2c(=O)c(C(=O)O)cc(C3CC3)c12` [Example 42, 1-cyclopropyl-9-methyl-4-oxo-8-(1,2,3,6-tetrahydropyridin-4-yl)-4H-quinolizine-3-carboxylic acid]: the MIC was 0.5 to 1 µg/mL (≈ 1.54 to 3.08 µM) against Yersinia pestis C092; > 8 µg/mL in assay [1] (Gram positive, MHB, 37° C., 16-20 hours); 0.125 µg/mL (≈ 0.385 µM) in the assay with K. pneumoniae ATCC 33495 (ATCC33495, Gram negative, MHB, 37° C., 16-20 hours, read-out: MIC K. pneumoniae ATCC 33495); 2 µg/mL (≈ 6.17 µM) in assay [3]; 0.064 µg/mL (≈ 0.197 µM) in the assay on H. influenzae ATCC 49247 (ATCC49247, Gram negative, MHB, 37° C., 16-20 hours, read-out: MIC H. influenzae ATCC 49247); 0.064 µg/mL (≈ 0.197 µM) in the assay with E. coli ATCC 25922 (ATCC25922, Gram negative, MHB, 37° C., 16-20 hours, read-out: MIC E. coli ATCC 25922). In addition, the MIC is 1 µg/mL (≈ 3.08 µM) in [5] (ATCC17677, Gram negative, MHB, 37° C., 16-20 hours, read-out: MIC S. maltophilia ATCC 17677); 0.25 to 0.5 µg/mL (≈ 0.771 to 1.54 µM) in assay [6]; 4 µg/mL (≈ 12.3 µM) in assay [7]; 2 µg/mL (≈ 6.17 µM) in the assay with S. pneumonia ATCC 49619 (ATCC49619, Gram positive, MHB, 37° C., 16-20 hours, read-out: MIC S. pneumonia ATCC 49619); 0.25 µg/mL (≈ 0.771 µM) in [8]; 2 µg/mL (≈ 6.17 µM) with A. baumannii ATCC 19606 (ATCC19606, Gram negative, MHB, 37° C., 16-20 hours, read-out: MIC A. baumannii B. ATCC 19606). Moreover, the MIC in the assay with E. faecium ATCC 19434 (ATCC19434, Gram positive, MHB, 37° C., 16-20 hours, read-out: MIC E. faecium ATCC 19434) was > 8 µg/mL. In [2] (High of 16 strains), the “MIC Range High, Staphylococcus aureus (16 strains)” value was 32 µg/mL (≈ 98.6 µM). Besides, in [2] (Low of 16 strains), the “MIC Range Low, Staphylococcus aureus (16 strains)” value stood at 0.5 µg/mL (≈ 1.54 µM). Also, the “MIC Range Median, Staphylococcus aureus (16 strains)” value in assay [2] (Median of 16 strains) turned out to be 16.25 µg/mL (≈ 50.1 µM). Also, the “MIC Range High, Burkholderia cepacia (5 strains)” value in assay [4] (High of 5 strains) worked out at 2 µg/mL (≈ 6.17 µM). In addition, in [4] (Low of 5 strains), the “MIC Range Low, Burkholderia cepacia (5 strains)” value amounted to 2 µg/mL (≈ 6.17 µM). In addition, the “MIC Range Median, Burkholderia cepacia (5 strains)” value in assay [4] (Median of 5 strains) turned out to be 2 µg/mL (≈ 6.17 µM).
In the case of `Cc1c(-c2ccc3[nH]ncc3c2)ccn2c(=O)c(C(=O)O)cc(C3CC3)c12` [Example 23 K salt, 1-cyclopropyl-8-(1H-indazol-5-yl)-9-methyl-4-oxo-4H-quinolizine-3-carboxylic acid], the MIC is 0.016 to 0.031 µg/mL against Yersinia pestis C092; 0.125 µg/mL in [1]; ≤ 0.004 µg/mL in the assay with S. aureus ATCC 25923; 0.125 µg/mL in the assay on K. pneumoniae ATCC 33495 (ATCC33495, read-out: MIC K. pneumoniae ATCC 33495); 0.008 µg/mL in the assay with E. faecalis ATCC 29212; 2 µg/mL in the assay on P. aeruginosa ATCC 27853. The MIC was 0.063 µg/mL in [3]; ≤ 0.004 µg/mL with H. influenzae ATCC 49247 (ATCC49247, read-out: MIC H. influenzae ATCC 49247); ≤ 0.004 µg/mL in assay [9]; 0.032 µg/mL in the assay on E. coli ATCC 25922 (ATCC25922, read-out: MIC E. coli ATCC 25922); 0.016 µg/mL in [10]; 0.064 µg/mL in assay [5] (ATCC17677, read-out: MIC S. maltophilia ATCC 17677). Further, the MIC in [6] came to 0.016 µg/mL; in [7], 0.063 µg/mL; in the assay with S. pneumonia ATCC 49619 (ATCC49619, read-out: MIC S. pneumonia ATCC 49619), 0.064 µg/mL; in assay [8], 0.004 µg/mL; in the assay on A. baumannii ATCC 19606 (ATCC19606, read-out: MIC A. baumannii B. ATCC 19606), 0.125 µg/mL; with E. faecium ATCC 19434 (ATCC19434, read-out: MIC E. faecium ATCC 19434) it was 0.25 µg/mL.

Values taken from patent US20150141435A1, “2-PYRIDONE ANTIMICROBIAL COMPOSITIONS” (Emergent BioSolutions, priority 2010, published 2015).
